Data from patent US12371432B2, “Haloallylamine compounds and application thereof” (TransThera Sciences (Nanjing), Inc., priority 2019, dated 2025).
Counter-ions that a name gives are not always drawn.

Tests used:
Type in all cases: biochemical
rhAOC1 = target: T1, rhAOC1 (Homo sapiens, UniProt P19801); assay: Selectivity against rhAOC1 enzyme (Biological Example 1); conditions: Table 1; histamine substrate, Amplex Red/HRP
T1 construct: purchased R&D
T1 sequence (P19801 20-751): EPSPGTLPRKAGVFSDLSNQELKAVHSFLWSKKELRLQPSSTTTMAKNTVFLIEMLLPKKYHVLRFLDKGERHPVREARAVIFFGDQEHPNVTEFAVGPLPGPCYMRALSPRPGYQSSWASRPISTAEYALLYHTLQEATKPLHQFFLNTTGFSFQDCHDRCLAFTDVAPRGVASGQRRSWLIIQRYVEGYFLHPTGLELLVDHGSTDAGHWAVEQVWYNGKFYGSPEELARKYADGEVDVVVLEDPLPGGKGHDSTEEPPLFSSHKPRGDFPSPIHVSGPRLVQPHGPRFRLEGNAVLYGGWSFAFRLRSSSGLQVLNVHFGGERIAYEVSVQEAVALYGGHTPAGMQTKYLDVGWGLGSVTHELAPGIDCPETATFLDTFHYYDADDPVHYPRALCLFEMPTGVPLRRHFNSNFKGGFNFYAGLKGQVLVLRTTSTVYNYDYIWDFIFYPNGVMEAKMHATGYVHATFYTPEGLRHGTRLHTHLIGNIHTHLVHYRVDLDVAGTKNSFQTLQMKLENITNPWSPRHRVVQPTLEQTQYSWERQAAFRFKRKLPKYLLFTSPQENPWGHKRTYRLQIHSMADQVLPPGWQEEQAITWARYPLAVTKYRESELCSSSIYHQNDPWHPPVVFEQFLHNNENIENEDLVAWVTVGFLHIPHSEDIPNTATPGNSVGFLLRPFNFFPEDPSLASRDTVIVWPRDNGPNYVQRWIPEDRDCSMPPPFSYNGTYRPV
Protocol: 2. Selectivity of Compounds Against rhAOC1 Enzyme
(§1) (1) Instrument, Consumable and Reagent
Microplate reader (Perkin Elmer, Nivo 5S), black unclear-bottom 96-well plate (Corning) and rhAOC1 (R&D)
(§2) (2) Preparation of Concentration Gradient Compound Solutions
(§3) An appropriate amount of the compound to be tested was taken, dissolved in DMSO to 10 mM and then stored. Before the study, an appropriate amount of mother liquor of the 10 mM compound to be tested was taken and gradiently diluted 3-fold with DMSO, 10 concentration gradients in total. Each concentration gradient was then diluted 10-fold with 0.1 M of PBS.
(§4) (3) Preparation of Enzyme Solutions
An appropriate amount of rhAOC1 mother liquor with a concentration of 0.441 mg/mL was taken and diluted with an appropriate amount of 50 mM HEPES buffer solution to obtain enzyme solutions of 4× concentrations.
(§5) (4) Preparation of Substrate Mixtures of 2× Concentrations
An appropriate amount of histamine was weighed and dissolved with 50 mM of HEPES buffer solution to obtain 20 mM of histamine solution. The histamine solution was added with 2 mM of Amplex Red mother liquor and 500 U/mL of HRP mother liquor and diluted with 50 mM of HEPES buffer solution to obtain substrate mixtures of 2× concentrations.
10 μL compound solutions of different concentrations, 25 μL rhAOC1 enzyme solutions of 4× concentrations and 15 μL of 50 mM HEPES buffer solution were first added into a 96-well plate, shaken to be mixed uniformly and then incubated at 37° C. for 30 min. 50 μL substrate mixtures of 2× concentrations were then added into each well, and the microplate reader was immediately used to detect fluorescence intensity of each well with 580 nm (20 nm) exciting light and 620 nm (10 nm) emission light for 5 min each time, 30 min in total. […]
(§6) V: fluorescence change rate; Ft: fluorescence reading at time point t; F0: initial fluorescence reading; Time: duration t; Vcmpd: fluorescence change rate of tested compound; Vmax: Max hole fluorescence change rate. […]

rhVAP-1 [1] = target: T2, rhVAP-1 (Homo sapiens, UniProt Q16853); assay: Inhibitory activity against rhVAP-1 enzyme (Biological Example 1); conditions: Table 1; benzylamine substrate, Amplex Red/HRP
T2 construct: purchased PeproTech
T2 sequence (Q16853 27-763 limits assumed): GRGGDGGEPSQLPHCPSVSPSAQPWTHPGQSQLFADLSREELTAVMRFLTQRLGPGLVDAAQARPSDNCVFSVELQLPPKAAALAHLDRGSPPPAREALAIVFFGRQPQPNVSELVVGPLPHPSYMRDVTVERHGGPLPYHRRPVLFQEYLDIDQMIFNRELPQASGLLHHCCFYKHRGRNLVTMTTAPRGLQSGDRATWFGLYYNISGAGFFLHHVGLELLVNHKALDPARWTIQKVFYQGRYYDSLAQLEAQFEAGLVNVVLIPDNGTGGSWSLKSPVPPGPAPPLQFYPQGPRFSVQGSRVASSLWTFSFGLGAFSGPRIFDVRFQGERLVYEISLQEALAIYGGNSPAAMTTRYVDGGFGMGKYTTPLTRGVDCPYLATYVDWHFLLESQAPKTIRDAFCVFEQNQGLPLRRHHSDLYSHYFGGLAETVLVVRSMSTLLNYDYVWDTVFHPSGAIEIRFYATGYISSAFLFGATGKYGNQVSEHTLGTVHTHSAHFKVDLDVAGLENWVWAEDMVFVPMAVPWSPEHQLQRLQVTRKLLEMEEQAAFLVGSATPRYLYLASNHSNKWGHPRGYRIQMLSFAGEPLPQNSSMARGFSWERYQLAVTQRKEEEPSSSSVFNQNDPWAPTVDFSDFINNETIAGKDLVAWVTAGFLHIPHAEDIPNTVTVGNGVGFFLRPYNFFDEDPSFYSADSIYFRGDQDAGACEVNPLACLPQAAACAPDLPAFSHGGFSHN
Protocol: (§7) 1. Inhibitory Activity of Compounds Against rhVAP-1 Enzyme
as §1
Multifunctional microplate reader (MD, FlexStation3), black unclear-bottom 96-well plate (Corning), and rhVAP-1 (PeproTech)
as §2
An appropriate amount of the compound to be tested was taken, dissolved in DMSO to 10 mM and then stored. Before the study, an appropriate amount of mother liquor of the 10 mM compound to be tested was diluted with DMSO, so that 1 mM solution was obtained. The solution was then gradiently diluted 3-fold with DMSO, 10 concentration gradients in total. PBS was then used to carry out 100-fold dilution, so that compound solutions of 10× series of concentrations were prepared.
as §4
(§8) An appropriate amount of protein diluent was added into rhVAP-1 powder, obtaining 1 mg/mL of mother liquor for storage. Before the study, PBS was used to carry out dilution to obtain enzyme solutions of 4× concentrations.
as §5
(§9) An appropriate amount of benzylamine was weighed and dissolved with PBS to obtain 200 mM of benzylamine solution. The benzylamine solution was added with 2 mM of Amplex Red mother liquor and 500 U/mL of HRP mother liquor and diluted with PBS to obtain substrate mixtures of 2× concentrations.
10 μL compound solutions of different concentrations, 25 μL rhVAP-1 enzyme solutions of 4× concentrations and 15 μL of PBS were first added into a 96-well plate, shaken to be mixed uniformly and then incubated at 37° C. for 30 min. 50 μL substrate mixtures of 2× concentrations were then added into each well, and the microplate reader was immediately used to detect fluorescence intensity of each well with 565 nm exciting light and 590 nm emission light for 5 min each time, 25 min in total. […]
as §6

rhVAP-1 [2] = target: T2, rhVAP-1; assay: Inhibitory activity against rhVAP-1 enzyme (Biological Example 2); conditions: Table 2; benzylamine substrate, Amplex Red/HRP
Protocol: as §7, §1
Microplate reader (Perkin Elmer, Nivo 5S), black unclear-bottom 96-well plate (Corning) and rhVAP-1 (PeproTech)
as §2
as §3, with “100-fold” for “10-fold”
as §4, §8, §5, §9
10 μL compound solutions of different concentrations, 25 μL rhVAP-1 enzyme solutions of 4× concentrations and 15 μL of PBS were first added into a 96-well plate, shaken to be mixed uniformly and then incubated at 37° C. for 30 min. 50 μL substrate mixtures of 2× concentrations were then added into each well, and the microplate reader was immediately used to perform detection with 580 nm (20 nm) exciting light and 620 nm (10 nm) emission light for 5 min each time, 30 min in total. The inhibition rate was calculated according to the following formula: V (RFU/min)=(Ft (RFU)−F0 (RFU))/(time(min)) Inhibition rate (%)=100%−Vcmpd (RFU/min)/Vmax (RFU/min)×100%
V: fluorescence change rate; Ft: fluorescence reading at time point t; F0: initial fluorescence reading; Time: duration t; Vcmpd: fluorescence change rate of tested compound; Vmax: Max hole fluorescence change rate.
(6) Fitting of Dose-Response Curve
(§10) With the log value of concentration as the X axis and the percent inhibition rate as the Y axis, the log (inhibitor) vs. response-variable slope of analysis software GraphPad Prism 5 was used to fit a dose-response curve, thus obtaining the IC50 value of activity of each compound against the enzyme.

MAO-B = target: T3, MAO-B (Homo sapiens, UniProt P27338); assay: Selectivity against MAO-B enzyme (MAO-Glo)
T3 construct: purchased Active Motif
T3 sequence (P27338 1-520): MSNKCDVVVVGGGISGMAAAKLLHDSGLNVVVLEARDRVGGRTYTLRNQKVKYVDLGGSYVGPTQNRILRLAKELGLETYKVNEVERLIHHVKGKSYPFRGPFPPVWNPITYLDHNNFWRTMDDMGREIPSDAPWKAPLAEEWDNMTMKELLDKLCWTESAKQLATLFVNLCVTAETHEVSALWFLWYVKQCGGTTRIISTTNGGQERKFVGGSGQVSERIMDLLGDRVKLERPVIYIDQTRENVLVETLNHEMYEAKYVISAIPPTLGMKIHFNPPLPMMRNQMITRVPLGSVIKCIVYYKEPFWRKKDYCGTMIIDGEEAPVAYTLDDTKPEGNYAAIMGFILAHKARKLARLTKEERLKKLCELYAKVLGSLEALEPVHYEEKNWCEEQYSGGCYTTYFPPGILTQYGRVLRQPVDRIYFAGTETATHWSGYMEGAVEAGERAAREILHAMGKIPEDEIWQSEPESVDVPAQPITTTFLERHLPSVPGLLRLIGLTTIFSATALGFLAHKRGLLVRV
Protocol: as §1
(§11) Microplate reader (Perkin Elmer, EnVision), 384-well plate (Perkin Elmer), centrifuge (Eppendorf), MAO-Glo™ (Promega), MAO-A (Active Motif) and MAO-B (Active Motif).
as §2
(§12) An appropriate amount of the compound to be tested was taken, dissolved in DMSO to 10 mM and then stored. The solution was then gradiently diluted 4-fold with DMSO, 6 concentration gradients in total.
as §4
(§13) MAO-A/B mother liquor was diluted with the experimental buffer for MAO-A/B to obtain enzyme solutions of 2× concentrations.
as §5
(§14) The mother liquor of MAO-A/B substrate mixture was diluted with the experimental buffer for MAO-A/B to obtain substrate mixtures of 2× concentrations.
(§15) 200 nL compound solutions or solvents of different concentrations and 10 μL MAO-A/B enzyme solutions of 2× concentrations were added into a 384-well plate, centrifuged at 1,000 rpm for 60 s, shaken to be mixed uniformly and then incubated at room temperature for 15 min. 10 μL substrate mixtures of 2× concentrations were then added into each well, and reaction was initiated. The 384-well plate was centrifuged at 1,000 rpm for 60 s, shaken for a uniform mixing and then incubated at room temperature for 60 min. 20 μL of test stop solution was added to stop reaction. Centrifugation was performed at 1,000 rpm for 60 s, and shaking was performed for uniform mixing. After 30 min of standing, the microplate reader was used to perform reading.
(§16) The inhibition rate was calculated according to the following formula: Inhibition rate (%)=(Signal_Max-Signal_sample)/(Signal_Max-Signal_min)×100 (6) Fitting of Dose-Response Curve
as §10

MAO-A = target: T4, MAO-A (Homo sapiens, UniProt P21397); assay: Selectivity against MAO-A enzyme (MAO-Glo)
T4 construct: purchased Active Motif
T4 sequence (P21397 1-527): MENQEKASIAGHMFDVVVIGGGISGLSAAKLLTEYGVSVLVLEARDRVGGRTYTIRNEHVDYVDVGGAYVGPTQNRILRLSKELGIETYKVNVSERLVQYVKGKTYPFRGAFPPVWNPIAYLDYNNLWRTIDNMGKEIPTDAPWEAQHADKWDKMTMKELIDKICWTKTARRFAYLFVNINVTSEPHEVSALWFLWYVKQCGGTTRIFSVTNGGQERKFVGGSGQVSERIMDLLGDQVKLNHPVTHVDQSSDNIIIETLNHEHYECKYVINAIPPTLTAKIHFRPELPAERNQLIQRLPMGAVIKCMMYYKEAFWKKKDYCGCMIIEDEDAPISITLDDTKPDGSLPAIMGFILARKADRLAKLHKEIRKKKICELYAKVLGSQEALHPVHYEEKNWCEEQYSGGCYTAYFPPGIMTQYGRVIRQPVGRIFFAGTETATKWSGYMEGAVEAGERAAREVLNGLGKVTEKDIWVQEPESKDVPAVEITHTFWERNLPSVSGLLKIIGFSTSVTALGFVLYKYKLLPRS
Protocol: as §1, §11, §2, §12, §4, §13, §5, §14, §15, §16, §10

Row | Structure (SMILES) | IC50 (rhAOC1) [µM] | IC50 (rhVAP-1 [1]) [µM] | IC50 (rhVAP-1 [2]) [µM] | IC50 (MAO-B) [µM] | IC50 (MAO-A) [µM]
1 | NC/C(=C\F)Cn1ccc2cc(C(=O)N3CCOCC3)ccc21 [Compound C1, (E)-(1-(2-(aminomethyl)-3-fluoroallyl)-1H-indol-5-yl)(morpholino)methanone] | 26.9 | 0.079 |  |  | 
2 | NC/C(=C\F)Cn1ncc2c(=O)n(C3CC3)ccc21 [Compound A44 hydrochloride, (E)-1-(2-(aminomethyl)-3-fluoroallyl)-5-cyclopropyl-1,5-dihydro-4H-pyrazolo[4,3-c]pyridin-4-one] |  |  | 0.013 | 88.9 | 77.4
3 | CC(C)(C)CN1CCc2nn(C/C(=C/F)CN)cc2C1=O [Compound A37 hydrochloride, (E)-2-(2-(aminomethyl)-3-fluoroallyl)-5-neopentyl-2,5,6,7-tetrahydro-4H-pyrazolo[4,3-c]pyridin-4-one] |  |  | 0.008 | > 100 | > 100
